Laboratory results taken from ChEMBL document CHEMBL2016539 (Bioorg Med Chem Lett, 2012).

Assays:
[1] = target: Inosine-5'-monophosphate dehydrogenase 2 (Homo sapiens, UniProt P12268); test: Inhibition of IMPDH2 using inosine 5'-monophosphate as substrate by spectrophotometry
[2] = Immunosuppressive activity in C57BL/6 mouse T lymphocytes assessed as inhibition of cell proliferation after 72 hrs by MTT assay; assay type: functional, cell-based; details: C57BL/6, T-cell

Row | SMILES | IC50 [1] [µM] | IC50 [2] [µM]
1 | COc1c(C)c2c(c(O)c1C/C=C(\C)CCC(=O)O)C(=O)OC2 [MYCOPHENOLIC ACID] | – | 0.32
2 | COc1c(C)c2c(c(O)c1C/C=C(\C)[C@H](CC(=O)O)O[C@H]1O[C@H](CO)[C@@H](O)[C@H](O)[C@H]1O)C(=O)OC2 [PENICACID B] | 6.43 | > 20
3 | COc1c(C)c2c(c(O)c1CC(O)C(C)(O)C(O)CC(=O)O)C(=O)OC2 (centres undefined) [PENICACID C] | 73.2 | > 30

Further molecules by falling IC50 [1], results first:

Row | IC50 [1] [µM] | SMILES | IC50 [2] [µM]
4 | 28.9 | COc1c(C)c2c(c(OC)c1C/C=C(\C)[C@@H](O)CC(=O)O)C(=O)OC2 [PENICACID A] | 2.46
5 | 1.79 | COc1c(C)c2c(c(O)c1C/C=C(\C)[C@@H](O)CC(=O)O)C(=O)OC2 | 1.1
